Values of other authors, collected in patent US20050032867A1, “Pharmaceutical composition comprising a 5ht1 receptor agonist” (priority 2001, published 2005).

effect of food on the overall bioavailability (administered orally): no significant effect
delay of Tmax (time to maximum observed serum concentrations) by food (administered orally with food): about 0.5 hour
Compound: CNS(=O)(=O)Cc1ccc2[nH]cc(CCN(C)C)c2c1 [sumatriptan]
